pIC50: −log10 of the molar value. Values after ≈ are worked out from the molar mass of the structure shown. Where two headings read alike, the source gives them in different places.
How the values were obtained:
E. hirae ATCC 10541 [1] = assay: MIC microdilution, standard strain; type: cell-based
S. aureus NCTC 4163 [2] = assay: MIC microdilution, standard strain; type: cell-based; details: Staphylococcus aureus
S. aureus ATCC 29213 = assay: MIC microdilution, standard strain; type: cell-based; details: Staphylococcus aureus
[3] = system: S. epidermidis ATCC 12228; assay: MIC microdilution, standard strain; type: cell-based
E. coli ATCC 25922 = assay: MIC microdilution, standard strain; type: cell-based; details: E. coli ATCC 25922, 18 h, 35 °C
E. coli NCTC 8196 = assay: MIC microdilution, standard strain; type: cell-based; details: E. coli NCTC 8196, 18 h, 35 °C
M. tuberculosis H37Rv = assay: In vitro antitubercular MIC; type: cell-based; details: Mycobacterium tuberculosis, read-out: Minimal inhibitory concentration
[4] = system: M. tuberculosis INH susceptible (Spec. 192); assay: In vitro antitubercular MIC; type: cell-based; details: Mycobacterium tuberculosis, read-out: Minimal inhibitory concentration
Caco-2 = assay: MTT assay 72 h; type: cell-based; details: Homo sapiens
Procedure: (§1) The cell viability was assessed by using an enzymatic conversion of 3-(4,5-dimethylthiazol-2-yl)-2,5-diphenyltetrazolium bromide salt (MTT) to insoluble formazan crystals by mitochondrial dehydrogenases, occurring in living cells. Cells were cultured in 96-well plates at a density of l × 10^4 cells per well, and cultured to adhere for 24 h at 37 °C in a CO2 incubator. After 24 h of incubation, culture medium was replaced with a fresh medium, then cells were treated with various concentrations of the compounds and incubated for 72 h at 37 °C in a CO2 incubator. Untreated cells were used as the control. Subsequently, MTT solution (0,5 mg/mL in free-serum medium) was added, and samples were incubated for 4 h at 37 °C in a CO2 incubator. Then, the medium was aspirated, and formed formazan crystals were solubilized by adding an isopropanol-DMSO mixture (1:1 vol). The intensity of the dissolved crystals was measured using a UVM 340 reader (ASYS Hitech GmbH, Austria), at a wavelength of 570 nm. Cell viability was presented as a percent of MTT reduced in treated cells versus control cells (incubated without tested compounds). The relative MTT level (%) was calculated as [A]/[B]×100, where [A] is the absorbance of the test sample, and [B] is the absorbance of the control sample containing the untreated cells. The IC50 value was estimated using CalcuSyn version 1.0. […]
(§2) Antiproliferative activity of tested compounds. Data are given as IC50 [µM] and SI.
(§3) Human immortal keratinocyte cell line from adult human skin (HaCaT), Human colorectal adenocarcinoma (CaCo-2), Human epithelial lung carcinoma cell line (A549) and Human melanoma cell line (HTB-140). Data are expressed as mean ± SD. The SI (Selectivity Index) was calculated for each compound using formula: SI = IC50 for normal cel line / IC50 cancer cel line.

A549 = assay: MTT assay 72 h; type: cell-based, human
Procedure: as §1, §2, §3

HTB-140 = assay: MTT assay 72 h; type: cell-based, human; details: HTB-140, MTT 72 h, mean ± SD
Procedure: as §1, §2, §3

HaCaT = assay: MTT assay 72 h; type: cell-based, human
Procedure: as §1, §2, §3

S. aureus NCTC 4163 [5] = system: S. aureus NCTC 4163; parameters: method as in PMID 30031974; details: previous project ref 20; cited from earlier work
[6] = system: S. epidermidis ATCC 12228; parameters: method as in PMID 30031974; details: previous project ref 20; cited from earlier work
E. hirae ATCC 10541 [7] = system: E. hirae ATCC 10541; parameters: method as in PMID 30031974; details: previous project ref 20; cited from earlier work
P. aeruginosa ATCC 27853 = system: P. aeruginosa ATCC 27853; parameters: method as in PMID 30031974; details: previous project ref 20; cited from earlier work
P. aeruginosa ATCC 15442 = system: P. aeruginosa ATCC 15442; parameters: method as in PMID 30031974; details: previous project ref 20; cited from earlier work
[8] = system: standard bacterial strains; parameters: method as in PMID 30031974; details: various standard bacterial strains; cited from earlier work
[9] = system: hospital staphylococcal isolates; parameters: method as in PMID 30031974; details: clinical cocci; cited from earlier work
[10] = NCTC4163, S. aureus NCTC 4163, 18 h, 35 °C, read-out: MIC
[11] = ATCC29213, S. aureus ATCC 29213, 18 h, 35 °C, read-out: MIC
[12] = Escherichia coli, ATCC25922, read-out: MIC
[13] = Escherichia coli, NCTC8196, read-out: MIC
[14] = Caco-2, MTT 72 h, mean ± SD, read-out: IC50
[15] = Homo sapiens, A549, MTT 72 h, mean ± SD, read-out: IC50
[16] = Homo sapiens, HaCaT normal cells, MTT 72 h, mean ± SD, read-out: IC50
[17] = Staphylococcus epidermidis, ATCC12228, S. epidermidis ATCC 12228, 18 h, 35 °C, read-out: MIC
[18] = Enterococcus hirae, ATCC10541, E. hirae ATCC 10541, 18 h, 35 °C, read-out: MIC

| Structure (SMILES) | MIC (M. tuberculosis H37Rv) [µg/mL] | MIC [4] [µg/mL] | pIC50 (Caco-2; [14]) | pIC50 (A549; [15]) | pIC50 (HTB-140; Homo sapiens) | pIC50 (HaCaT; [16]) | further results |
| --- | --- | --- | --- | --- | --- | --- | --- |
| O=C(O)c1cn(C2CC2)c2cc(N3CCNCC3)c(F)cc2c1=O [Ciprofloxacin, reference compound] | – | – | – | – | – | – | MIC (E. hirae ATCC 10541 [1]; Enterococcus hirae, ATCC10541, 18 h): 2 µg/mL (≈ 6.04 µM) |
| Fc1ccc(-n2nnnc2NCc2ccco2)cc1 [Compound 1, 1-(4-fluorophenyl)-N-(furan-2-ylmethyl)-1H-tetrazol-5-amine] | 256 (≈ 987 µM) | 256 (≈ 987 µM) | < 4.00 | < 4.00 | < 4.00 | < 4.00 | MIC (S. aureus NCTC 4163 [2]; [10]): 64 µg/mL (≈ 247 µM); MIC (S. aureus ATCC 29213; [11]): 64 µg/mL (≈ 247 µM); MIC ([3]; Staphylococcus epidermidis, ATCC12228, 18 h): 256 µg/mL (≈ 987 µM); MIC (E. coli ATCC 25922; [12]): 128 µg/mL (≈ 494 µM); MIC (E. coli NCTC 8196; [13]): 128 µg/mL (≈ 494 µM) |
| Cc1ccc(Cl)cc1-n1nnnc1NCc1ccco1 [Compound 2, 1-(5-chloro-2-methylphenyl)-N-(furan-2-ylmethyl)-1H-tetrazol-5-amine] | > 512 | > 512 | < 4.00 | < 4.00 | < 4.00 | < 4.00 | MIC (S. aureus NCTC 4163 [2]; [10]): 64 µg/mL (≈ 221 µM); MIC (S. aureus ATCC 29213; [11]): 64 µg/mL (≈ 221 µM); MIC [3, 17]: 256 µg/mL (≈ 884 µM); MIC (E. hirae ATCC 10541 [1]; [18]): 64 µg/mL (≈ 221 µM); MIC (E. coli ATCC 25922; [12]): 128 µg/mL (≈ 442 µM); MIC (E. coli NCTC 8196; [13]): 128 µg/mL (≈ 442 µM) |
| Clc1cccc(-n2nnnc2NCc2ccco2)c1 [Compound 4, 1-(3-chlorophenyl)-N-(furan-2-ylmethyl)-1H-tetrazol-5-amine] | > 512 | 512 (≈ 1860 µM) | < 4.00 | < 4.00 | < 4.00 | < 4.00 | MIC (S. aureus NCTC 4163 [2]; NCTC4163, 18 h): 256 µg/mL (≈ 929 µM); MIC (S. aureus ATCC 29213; ATCC29213, 18 h): 256 µg/mL (≈ 929 µM); MIC [3, 17]: 512 µg/mL (≈ 1860 µM); MIC (E. hirae ATCC 10541 [1]; [18]): 512 µg/mL (≈ 1860 µM); MIC (E. coli ATCC 25922): >; MIC (E. coli NCTC 8196; [13]): 512 µg/mL (≈ 1860 µM) |
| Clc1ccc(-n2nnnc2NCc2ccco2)cc1Cl [Compound 5, 1-(3,4-dichlorophenyl)-N-(furan-2-ylmethyl)-1H-tetrazol-5-amine] | > 512 | > 512 | < 4.00 | < 4.00 | < 4.00 | < 4.00 | – |
| Brc1cccc(-n2nnnc2NCc2ccco2)c1 [Compound 7, 1-(3-bromophenyl)-N-(furan-2-ylmethyl)-1H-tetrazol-5-amine] | 512 (≈ 1600 µM) | 512 (≈ 1600 µM) | < 4.00 | < 4.00 | < 4.00 | < 4.00 | – |
| Clc1ccc(-n2nnnc2NCc2ccco2)cc1 [Compound 8, 1-(4-chlorophenyl)-N-(furan-2-ylmethyl)-1H-tetrazol-5-amine] | 256 (≈ 929 µM) | 512 (≈ 1860 µM) | < 4.00 | < 4.00 | < 4.00 | < 4.00 | MIC (S. aureus NCTC 4163 [2]; [10]): 128 µg/mL (≈ 464 µM); MIC (S. aureus ATCC 29213; [11]): 128 µg/mL (≈ 464 µM); MIC ([3]; S. epidermidis ATCC 12228, 18 h, 35 °C): >; MIC (E. hirae ATCC 10541 [1]; E. hirae ATCC 10541, 18 h, 35 °C): >; MIC (E. coli ATCC 25922): >; MIC (E. coli NCTC 8196): > |
| Fc1cccc(-n2nnnc2NCc2ccco2)c1 [Compound 9, 1-(3-fluorophenyl)-N-(furan-2-ylmethyl)-1H-tetrazol-5-amine] | 256 (≈ 987 µM) | 256 (≈ 987 µM) | < 4.00 | < 4.00 | < 4.00 | < 4.00 | – |
| Brc1ccc(-n2nnnc2NCc2ccco2)cc1 [Compound 10, 1-(4-bromophenyl)-N-(furan-2-ylmethyl)-1H-tetrazol-5-amine] | > 512 | > 512 | < 4.00 | < 4.00 | < 4.00 | < 4.00 | – |
| Clc1ccccc1-n1nnnc1NCc1ccco1 [Compound 11, 1-(2-chlorophenyl)-N-(furan-2-ylmethyl)-1H-tetrazol-5-amine] | 512 (≈ 1860 µM) | 256 (≈ 929 µM) | < 4.00 | < 4.00 | < 4.00 | < 4.00 | – |
| Brc1ccccc1-n1nnnc1NCc1ccco1 [Compound 12, 1-(2-bromophenyl)-N-(furan-2-ylmethyl)-1H-tetrazol-5-amine] | 512 (≈ 1600 µM) | 512 (≈ 1600 µM) | < 4.00 | < 4.00 | < 4.00 | < 4.00 | – |
| NNC(=O)c1ccncc1 [INH, isoniazid, reference compound] | ≤ 0.0625 | ≤ 0.0625 | – | – | – | – | – |
| Cc1ccc(-n2nnnc2NCc2ccco2)cc1Cl [Ref 1, 1-(3-chloro-4-methylphenyl)-N-(furan-2-ylmethyl)-1H-tetrazol-5-amine] | – | – | – | – | – | – | MIC (S. aureus NCTC 4163 [5]): 4 µg/mL (≈ 13.8 µM); MIC [6]: 2 µg/mL (≈ 6.9 µM); MIC (E. hirae ATCC 10541 [7]): 8 µg/mL (≈ 27.6 µM); MIC (P. aeruginosa ATCC 27853): 4 µg/mL (≈ 13.8 µM); MIC (P. aeruginosa ATCC 15442): 32 µg/mL (≈ 110 µM) |
| Fc1ccc(-n2nnnc2NCc2ccco2)cc1Cl [Ref 2, 1-(3-chloro-4-fluorophenyl)-N-(furan-2-ylmethyl)-1H-tetrazol-5-amine] | – | – | – | – | – | – | MIC (S. aureus NCTC 4163 [5]): 2 µg/mL (≈ 6.81 µM); MIC [6]: 2 µg/mL (≈ 6.81 µM); MIC (E. hirae ATCC 10541 [7]): 4 µg/mL (≈ 13.6 µM); MIC (P. aeruginosa ATCC 27853): 2 µg/mL (≈ 6.81 µM); MIC (P. aeruginosa ATCC 15442): 64 µg/mL (≈ 218 µM); MIC (range) [8]: 0.25 to 4 µg/mL; MICs (range) [9]: 2 to 16 µg/mL |
| N.N.[Cl][Pt][Cl] [cisplatin, reference compound] | – | – | – | – | – | – | pIC50 (A549; A549, MTT 72 h, mean ± SD, read-out: IC50): 5.71; pIC50 (HTB-140): 5.95; pIC50 (HaCaT; HaCaT normal cells, MTT 72 h, mean ± SD, read-out: IC50): 5.55 |
| COc1cccc2c1C(=O)c1c(O)c3c(c(O)c1C2=O)C[C@@](O)(C(=O)CO)C[C@@H]3O[C@H]1C[C@H](N)[C@H](O)[C@H](C)O1 [doxorubicin, reference compound] | – | – | – | – | – | – | pIC50 (Caco-2; Caco-2, 72 h): 6.28; pIC50 (A549; Homo sapiens, A549, 72 h): 6.20; pIC50 (HaCaT; Homo sapiens, HaCaT, 72 h): 5.96 |

From paper PMC7827014, “Synthetic Transition from Thiourea-Based Compounds to Tetrazole Derivatives: Structure and Biological Evaluation of Synthesized New N-(Furan-2-ylmethyl)-1H-tetrazol-5-amine Derivatives” (Molecules, 2021)
